Among the data in US20100056563A1, “NOVEL 1.8-NAPHTHYRIDINE COMPOUNDS” (priority 2007, published 2010) are IC50 values, retold here.

What is called IC50 is the point on the concentration scale where inhibition reaches its midpoint. High values mean weaker potency in that assay, low ones greater potency in that assay.

In the assay the target is T1, FLAG-tagged full length PHD2 (Homo sapiens, UniProt Q9GZT9).
T1 construct: FLAG-tagged full length PHD2; FLAG; made in house; host or cells: baculovirus-infected Sf9 cells
T1 sequence (Q9GZT9 whole entry): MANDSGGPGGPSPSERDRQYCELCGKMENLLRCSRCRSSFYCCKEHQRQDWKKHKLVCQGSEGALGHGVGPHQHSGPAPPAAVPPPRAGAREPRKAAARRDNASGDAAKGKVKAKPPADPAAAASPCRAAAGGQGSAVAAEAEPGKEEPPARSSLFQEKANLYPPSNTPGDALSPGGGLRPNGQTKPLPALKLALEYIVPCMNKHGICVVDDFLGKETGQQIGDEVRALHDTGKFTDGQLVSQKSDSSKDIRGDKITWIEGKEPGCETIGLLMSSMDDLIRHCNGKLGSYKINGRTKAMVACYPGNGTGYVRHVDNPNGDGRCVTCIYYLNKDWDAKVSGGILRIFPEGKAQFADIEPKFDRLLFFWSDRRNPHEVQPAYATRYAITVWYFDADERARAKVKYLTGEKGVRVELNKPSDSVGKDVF
Nature of the assay: HIF-PHD2 time resolved fluorescence inhibition assay (HIF-1α peptide hydroxylation, VHL complex detection). Type of assay: biochemical. The settings on record: 0.2 μM 2-oxoglutarate, 0.5 μM HIF-1α peptide, 2 hr at room temperature. As to the method: To each well of a 96-well plate was added […] of test compound in DMSO and 20 μl of assay buffer (50 mM Tris pH 7.4/0.01% Tween-20/0.1 mg/ml bovine serum albumin/10 μM ferrous sulfate/1 mM sodium ascorbate/20 μg/ml catalase) containing 0.15 μg/ml FLAG-tagged full length PHD2 expressed in and purified from baculovirus-infected Sf9 cells. After a […] preincubation at room temperature, the enzymatic reactions were initiated by the addition of 4 μL of substrates (final concentrations of 0.2 μM 2-oxoglutarate and 0.5 μM HIF-1α peptide biotinyl-DLDLEMLAPYIPMDDDFQL). After 2 hr at room temperature, the reactions were terminated and signals were developed by the addition of a 25 μL quench/detection mix to a final concentration of 1 mM ortho-phenanthroline, 0.1 mM EDTA, 0.5 nM anti-(His)6 LANCE reagent (Perkin-Elmer Life Sciences), 100 nM AF647-labeled streptavidin (Invitrogen), and 2 μg/ml (His)6-VHL complex (S. Tan (2001) Protein Expr. Purif. 21, 224-234). The ratio of time resolved fluorescence signals at 665 and 620 nm was determined, and percent inhibition was calculated relative to an uninhibited control sample run in parallel.
In turn, `NC(=O)c1ccc(Cn2c(=O)c(C(=O)NCC(=O)O)c(O)c3cccnc32)cc1` [Example 13, N-({1-[4-(Aminocarbonyl)benzyl]-4-hydroxy-2-oxo-1,2-dihydro-1,8-naphthyridin-3-yl}carbonyl)glycine] yielded an IC50 of 1.2 nM.

As to `C[C@H](NC(=O)c1c(O)c2cccnc2n(Cc2nc3cc(Cl)ccc3s2)c1=O)C(=O)O` [Example 35, (2S)-2-[({1-[(5-Chloro-1,3-benzothiazol-2-yl)methyl]-4-hydroxy-2-oxo-1,2-dihydro-1,8-naphthyridin-3-yl}carbonyl)amino]propanoic acid], the half-maximal inhibitory concentration (IC50) amounted to 5.9 nM.

Take `C[C@H](NC(=O)c1c(O)c2cccnc2n(Cc2ccc(C(F)(F)F)cc2)c1=O)C(=O)O` [Example 11, N-({4-Hydroxy-2-oxo-1-[4-(trifluoromethyl)benzyl]-1,2-dihydro-1,8-naphthyridin-3-yl}carbonyl)-L-alanine]: the IC50 was 6 nM.

The compound `O=C(O)CNC(=O)c1c(O)c2cccnc2n(Cc2nnc(-c3ccccc3)o2)c1=O` [Example 27, N-({4-Hydroxy-2-oxo-1-[(5-phenyl-1,3,4-oxadiazol-2-yl)methyl]-1,2-dihydro-1,8-naphthyridin-3-yl}carbonyl)glycine] returned an IC50 of 2.6 nM.

In turn, `COc1ccc2c(O)c(C(=O)NCC(=O)O)c(=O)n(Cc3ccc(C(F)(F)F)cc3)c2n1` [Example 7, N-({4-Hydroxy-7-methoxy-2-oxo-1-[4-(trifluoromethyl)benzyl]-1,2-dihydro-1,8-naphthyridin-3-yl}carbonyl)glycine] had an IC50 of 1.5 nM.

As for `O=C(O)CNC(=O)c1c(O)c2cccnc2n(Cc2ccc(Br)cc2)c1=O` [Example 3, N-{[1-(4-Bromobenzyl)-4-hydroxy-2-oxo-1,2-dihydro-1,8-naphthyridin-3-yl]carbonyl}glycine], the 50% inhibitory concentration (IC50) stood at 1.9 nM.

Consider `N#Cc1ccc(Cn2c(=O)c(C(=O)NCC(=O)O)c(O)c3cccnc32)cc1` [Example 4, N-{[1-(4-Cyanobenzyl)-4-hydroxy-2-oxo-1,2-dihydro-1,8-naphthyridin-3-yl]carbonyl}glycine], for which the midpoint of inhibition, the IC50, lay at 1.6 nM.

As for `CC[C@H](NC(=O)c1c(O)c2cccnc2n(Cc2ccc(C(F)(F)F)cc2)c1=O)C(=O)O` [Example 17, (2S)-2-[({4-Hydroxy-2-oxo-1-[4-(trifluoromethyl)benzyl]-1,2-dihydro-1,8-naphthyridin-3-yl}carbonyl)amino]butanoic acid], half-maximal inhibition (IC50) required 160 nM.

`O=C(N[C@@H](CO)C(=O)O)c1c(O)c2cccnc2n(Cc2ccc(C(F)(F)F)cc2)c1=O` [Example 14, N-({1-[4-(trifluoromethyl)benzyl]-4-hydroxy-2-oxo-1,2-dihydro-1,8-naphthyridin-3-yl}carbonyl)-L-serine] displayed a concentration for half-maximal inhibition (IC50) of 160 nM.

`O=C(O)CNC(=O)c1c(O)c2cccnc2n(Cc2nc(-c3ccccc3)no2)c1=O` [Example 21, N-({4-Hydroxy-2-oxo-1-[(3-phenyl-1,2,4-oxadiazol-5-yl)methyl]-1,2-dihydro-1,8-naphthyridin-3-yl}carbonyl)glycine] returned a half-maximal inhibitory concentration (IC50) of 0.8 nM.

`CC(C)(C)c1csc(Cn2c(=O)c(C(=O)NCC(=O)O)c(O)c3cccnc32)n1` [Example 25, N-({1-[(4-tert-Butyl-1,3-thiazol-2-yl)methyl]-4-hydroxy-2-oxo-1,2-dihydro-1,8-naphthyridin-3-yl}carbonyl)glycine]: the half-inhibitory concentration (IC50) is 2 nM.

As to `N#Cc1cnc2c(c1)c(O)c(C(=O)NCC(=O)O)c(=O)n2Cc1ccc(C(F)(F)F)cc1` [Example 10, N-({6-Cyano-4-hydroxy-2-oxo-1-[4-(trifluoromethyl)benzyl]-1,2-dihydro-1,8-naphthyridin-3-yl}carbonyl)glycine], inhibition was half-maximal at 1.2 nM (IC50).

`O=C(O)C[C@H](NC(=O)c1c(O)c2cccnc2n(Cc2ccc(C(F)(F)F)cc2)c1=O)C(=O)O` [Example 15, N-({1-[4-(trifluoromethyl)benzyl]-4-hydroxy-2-oxo-1,2-dihydro-1,8-naphthyridin-3-yl}carbonyl)-L-aspartic acid] registered an IC50 of 25 nM.

`O=C(O)CNC(=O)c1c(O)c2cccnc2n(Cc2cc(-c3ccccc3)no2)c1=O` [Example 19, N-({4-Hydroxy-2-oxo-1-[(3-phenylisoxazol-5-yl)methyl]-1,2-dihydro-1,8-naphthyridin-3-yl}carbonyl)glycine]: the IC50 is 0.4 nM.

In turn, `O=C(O)CNC(=O)c1c(O)c2cccnc2n(Cc2noc(-c3ccccc3)n2)c1=O` [Example 20, N-({4-Hydroxy-2-oxo-1-[(5-phenyl-1,2,4-oxadiazol-3-yl)methyl]-1,2-dihydro-1,8-naphthyridin-3-yl}carbonyl)glycine] showed a 50% inhibitory concentration (IC50) of 0.9 nM.

`O=C(O)CNC(=O)c1c(O)c2cccnc2n(Cc2ccc(C(F)(F)F)cc2)c1=O` [Example 1, N-({4-Hydroxy-2-oxo-1-[4-(trifluoromethyl)benzyl]-1,2-dihydro-1,8-naphthyridin-3-yl}carbonyl)glycine] yielded a half-maximal inhibitory concentration (IC50) of 2.1 nM.

Regarding `CCOC(=O)Cn1c(=O)c(C(=O)NCC(=O)O)c(O)c2cccnc21` [Example 23, N-{[1-(2-Ethoxy-2-oxoethyl)-4-hydroxy-2-oxo-1,2-dihydro-1,8-naphthyridin-3-yl]carbonyl}glycine], the IC50 was 8.5 nM.

With `O=C(O)CNC(=O)c1c(O)c2cccnc2n(Cc2ccc(C(F)(F)F)nc2)c1=O` [Example 28, {[(4-Hydroxy-2-oxo-1-{[6-(trifluoromethyl)pyridin-3-yl]methyl}-1,2-dihydro-1,8 naphthyridin-3-yl)carbonyl}amino}acetic acid], the IC50 is 0.85 nM.

As for `O=C(O)CNC(=O)c1c(O)c2cccnc2n(Cc2nc3ccccc3s2)c1=O` [Example 8, N-{[1-(1,3-Benzothiazol-2-ylmethyl)-4-hydroxy-2-oxo-1,2-dihydro-1,8-naphthyridin-3-yl]carbonyl}glycine], 0.7 nM corresponded to half-maximal inhibition (IC50).

The compound `O=C(O)CNC(=O)c1c(O)c2cccnc2n(Cc2nc(-c3ccccc3)cs2)c1=O` [Example 22, N-({4-Hydroxy-2-oxo-1-[(4-phenyl-1,3-thiazol-2-yl)methyl]-1,2-dihydro-1,8-naphthyridin-3-yl}carbonyl)glycine] yielded a 50% inhibitory concentration (IC50) of 0.8 nM.

With `C[C@H](NC(=O)c1c(O)c2cccnc2n(Cc2ccc(C(F)(F)F)cc2F)c1=O)C(=O)O` [Example 39, (2S)-2-[({1-[2-Fluoro-4-(trifluoromethyl)benzyl]-4-hydroxy-2-oxo-1,2-dihydro-1,8-naphthyridin-3-yl}carbonyl)amino]propanoic acid], half-maximal inhibition (IC50) required 8.2 nM.

On to `O=C(O)CNC(=O)c1c(O)c2cccnc2n(Cc2nc3cc(Cl)ccc3s2)c1=O` [Example 24, N-({1-[(5-Chloro-1,3-benzothiazol-2-yl)methyl]-4-hydroxy-2-oxo-1,2-dihydro-1,8-naphthyridin-3-yl}carbonyl)glycine], for which inhibition was half-maximal at 1.1 nM (IC50).

`O=C(O)CNC(=O)c1c(O)c2cc(Cl)cnc2n(Cc2nc3ccccc3s2)c1=O` [Example 40, ({[1-(1,3-Benzothiazol-2-ylmethyl)-6-chloro-4-hydroxy-2-oxo-1,2-dihydro-1,8-naphthyridin-3-yl]carbonyl}amino)acetic acid]: the IC50 came out at 1.5 nM.

Turning to `O=C(O)CNC(=O)c1c(O)c2cc(I)cnc2n(Cc2ccc(C(F)(F)F)cc2)c1=O` [Example 9, N-({4-Hydroxy-6-iodo-2-oxo-1-[4-(trifluoromethyl)benzyl]-1,2-dihydro-1,8-naphthyridin-3-yl}carbonyl)glycine], the 50% inhibitory concentration (IC50) was determined as 1.3 nM.

For `O=C(O)CNC(=O)c1c(O)c2cccnc2n(Cc2ccc(C(F)(F)F)cc2F)c1=O` [Example 6, N-{[1-(2-Fluoro-4-trifluoromethylbenzyl)-4-hydroxy-2-oxo-1,2-dihydro-1,8-naphthyridin-3-yl]carbonyl}glycine], inhibition was half-maximal at 1.6 nM (IC50).

For the compound `C[C@H](NC(=O)c1c(O)c2cccnc2n(Cc2ccc(C(F)(F)F)nc2)c1=O)C(=O)O` [Example 38, (2S)-2-{[(4-Hydroxy-2-oxo-1-{[6-(trifluoromethyl)pyridin-3-yl]methyl}-1,2-dihydro-1,8-naphthyridin-3-yl)carbonyl]amino}propanoic acid], the IC50 amounted to 2.7 nM.

With `C[C@@H](NC(=O)c1c(O)c2cccnc2n(Cc2ccc(C(F)(F)F)cc2)c1=O)C(=O)O` [Example 12, N-({4-Hydroxy-2-oxo-1-[4-(trifluoromethyl)benzyl]-1,2-dihydro-1,8-naphthyridin-3-yl}carbonyl)-D-alanine], inhibition was half-maximal at 1100 nM (IC50).

Compound `O=C(O)CNC(=O)c1c(O)c2cccnc2n(Cc2ccc(Cl)cc2)c1=O` [Example 2, N-{[1-(4-Chlorobenzyl)-4-hydroxy-2-oxo-1,2-dihydro-1,8-naphthyridin-3-yl]carbonyl}glycine] gave an IC50 of 1.6 nM.

The compound `C[C@H](NC(=O)c1c(O)c2cccnc2n(Cc2nc3ccccc3s2)c1=O)C(=O)O` [Example 30, (2S)-2-({[1-(1,3-Benzothiazol-2-ylmethyl)-4-hydroxy-2-oxo-1,2-dihydro-1,8-naphthyridin-3-yl]carbonyl}amino)propanoic acid] had an IC50 of 2.7 nM.

Compound `Cc1ccc(Cn2c(=O)c(C(=O)NCC(=O)O)c(O)c3cccnc32)cc1` [Example 5, N-{[1-(4-Methylbenzyl)-4-hydroxy-2-oxo-1,2-dihydro-1,8-naphthyridin-3-yl]carbonyl}glycine] came in with a half-maximal inhibitory concentration (IC50) of 1.8 nM.
